Source: EPA's ToxValDB 9.5 (doi:10.2903/j.efsa.2010.1905)
Values after ≈ are worked out from the molar mass of the structure shown.

How the values were obtained:
[1] = tested on: Aphidius rhopalosiphi; assay: LR50; higher = less toxic; conditions: not reported; mortality
[2] = tested on: Typhlodromus pyri; assay: LR50; higher = less toxic; conditions: not reported; mortality
[3] = tested on: Pimephales promelas; conditions: chronic/long-term; duration: 32 days; growth
[4] = tested on: Anas platyrhynchos; conditions: oral, mortality
[5] = tested on: Mus musculus; conditions: acute; oral; mortality
[6] = tested on: Colinus virginianus; conditions: for NOEC: reproduction developmental
[7] = tested on: Rattus norvegicus
[8] = tested on: Apis mellifera; conditions: acute; oral; unspecified; mortality
[9] = tested on: Daphnia magna; conditions: chronic/long-term; duration: 21 days; reproduction
[10] = tested on: Cyprinus carpio; conditions: acute; duration: 96 hours; mortality
[11] = tested on: Neomysis kadiakensis; conditions: chronic/long-term; duration: 28 days; reproduction
[12] = tested on: Tagia sp.; conditions: acute; duration: 14 days; mortality
[13] = subchronic, duration: 90 days, oral

Row | Structure (SMILES) | LR50 [1] | LR50 [2] | NOEC [3] | LD50 ([4]; acute, unspecified) | LC50 ([4]; short-term, feed) | LD50 [5] | LC50 ([6]; acute, oral, diet, mortality) | LD50 ([6]; acute, oral, mortality) | NOEC [6] | NOAEL ([7]; chronic, mortality) | NOAEL ([7]; developmental, development) | NOAEL [7, 13] | LD50 [8] | NOEC [9] | LC50 [10] | NOAEL ([7]; reproduction developmental, reproduction) | NOEC [11] | LC50 [12]
1 | CCCCOC(=O)[C@@H](C)Oc1ccc(Oc2ccc(C(F)(F)F)cn2)cc1 [Fluazifop-P-butyl] | 177 g/ha | 5.6 g/ha | 0.077 mg/L | > 3960 mg/kg-day | > 942 mg/kg-day | > 2000 mg/kg-day | > 1070 mg/kg-day | > 2000 mg/kg-day | 86.8 mg/kg-day | 6.72 mg/kg-day | 2 mg/kg-day | 0.9 mg/kg-day | > 200 µg/piece | – | – | – | – | –
2 | C[C@@H](Oc1ccc(Oc2ccc(C(F)(F)F)cn2)cc1)C(=O)O [Fluazifop-P] | – | – | 1.46 mg/L | – | – | – | – | – | – | – | 2 mg/kg-day | 0.9 mg/kg-day | – | – | – | – | – | –
3 | CCCCOC(=O)C(C)Oc1ccc(Oc2ccc(C(F)(F)F)cn2)cc1 (configuration not stated) [Fluazifop-butyl] | – | – | – | – | – | – | – | – | 3.95 mg/kg-day | – | – | – | – | 0.25 mg/L | 1.31 mg/L (≈ 3.42 µM) | 6.72 mg/kg-day | 0.0477 mg/L | > 1000 mg/kg
